Among the data in patent US20190110476A1, “NOVEL ISOTHIAZOLAMIDES, PROCESSES FOR THEIR PREPARATION AND THEIR USE AS FUNGICIDES” (priority 2014, published 2019) are LogP values, retold here.

The structures appear in SMILES notation. Marks after values point to notes of the source that are not given here.

The nature of the data set: Measurement of LogP values by HPLC on reversed phase columns (EEC directive 79/831 Annex V.A8). The format is physicochemical. Put shortly: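 Following EEC directive 79/831 Annex V.A8, lipophilicity was derived from retention on reversed-phase HPLC columns. Separate values are given per diastereoisomer, and UV lambda-max (200–400 nm) was read at the peak signals.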
`COc1c(N)nsc1C(=O)NCc1c(F)cc(F)cc1F` [I-732]: the LogP was 1.82[a].

Turning to `COc1c(N)nsc1C(=O)NCc1ccccc1F` [I-733], the LogP was 1.64[a].

Take `COc1c(N)nsc1C(=O)NCC1CCCCO1` (stereo not shown) [I-734]: the LogP was 1.31[a].

Turning to `COc1c(N)nsc1C(=O)NCC1CCCCCC1` [I-735], the LogP is 2.50[a].

With `COc1c(N)nsc1C(=O)NCC1CCCC1` [I-736], the LogP is 1.87[a].

With `COc1c(N)nsc1C(=O)NCc1ccc(Cl)cc1` [I-737], the LogP is 1.98[a].

With `CC1CCC(CNC(=O)c2snc(N)c2Cl)CC1` (stereo not shown) [I-738], the LogP is 2.75[a].

Regarding `COc1ccc(CNc2nsc(C(=O)NCC34CCC(CC3)C4)c2Cl)cc1` [I-739], the LogP was 4.29[a].

For `Nc1cc(C(=O)NCC2CCCC2O)sn1` (stereo not shown) [I-774], the LogP is 0.63[a].

For the molecule `Nc1cc(C(=O)NCC2CCC(O)C2)sn1` (stereo not shown) [I-775], the LogP was 0.36[a].

`COc1cc(F)ccc1CNC(=O)c1snc(N)c1Cl` [I-782]: the LogP was 2.02[a].

For `N#Cc1ccc(CNC(=O)c2snc(N)c2Cl)cc1` [I-783], the LogP was 1.44[a].

Take `Cc1cc(F)ccc1CNC(=O)c1snc(N)c1Cl` [I-784]: the LogP was 2.09[a].

In the case of `Nc1nsc(C(=O)NCC2CCCCC2)c1O` [I-797], the LogP is 2.12[a].

Take `Nc1nsc(C(=O)NC2CCCC3CCCCC32)c1Cl` (stereo not shown) [I-808]: the LogP is 3.33[a].

In the case of `Cc1cc(F)ccc1CNC(=O)c1snc(NC(=O)C(F)F)c1Cl` [I-809], the LogP was 2.28[a].

For the molecule `CCC(=O)N(C(=O)CC)c1nsc(C(=O)NCc2ccc(C#N)cc2)c1Cl` [I-810], the LogP was 2.89[a].

On to `CCC(=O)Nc1nsc(C(=O)NCc2ccc(C#N)cc2)c1Cl` [I-811], for which the LogP is 1.54[a].

With `N#Cc1ccc(CNC(=O)c2snc(NC(=O)C(F)(F)F)c2Cl)cc1` [I-812], the LogP is 2.12[a].

As to `N#Cc1ccc(CNC(=O)c2snc(NC(=O)C(F)F)c2Cl)cc1` [I-813], the LogP is 1.68[a].

Turning to `Cc1ccc(CNC(=O)c2snc(N)c2Cl)o1` [I-814], the LogP is 1.66[a].

As to `CCC(=O)Nc1nsc(C(=O)NCc2ccc(F)cc2OC)c1Cl` [I-815], the LogP is 2.10[a].

Regarding `Cc1cc(F)ccc1CNC(=O)c1snc(NC(=O)C(F)(F)F)c1Cl` [I-816], the LogP was 2.72[a].

Turning to `CCC(=O)Nc1nsc(C(=O)NCc2ccc(F)cc2C)c1Cl` [I-817], the LogP was 2.15[a].

On to `C[C@H](NC(=O)c1snc(N)c1Br)C1CCCCC1` [I-818], for which the LogP was 2.84[a].

With `COc1cc(F)ccc1CNC(=O)c1snc(NC(=O)C(F)(F)F)c1Cl` [I-819], the LogP is 2.72[a].

As for `COc1cc(F)ccc1CNC(=O)c1snc(NC(=O)C(F)F)c1Cl` [I-820], the LogP was 2.23[a].

`Nc1nsc(C(=O)NCC2CCCCC2Cl)c1Cl` (stereo not shown) [I-821]: the LogP was 2.44[a].

On to `Nc1nsc(C(=O)NCC23CCC(CC2)C3)c1Cl` [I-822], for which the LogP was 2.53[a].

On to `COc1ccc(CNc2nsc(C(=O)NCC3(OC)CCC(C)CC3)c2Cl)cc1` (stereo not shown) [I-823], for which the LogP is 4.33[a].

For the molecule `CCC1(CNC(=O)c2snc(NCc3ccc(OC)cc3)c2Cl)CCCCC1` [I-824], the LogP was 4.89[a].

Regarding `COc1ccc(CNc2nsc(C(=O)NCC3(C)CCC(C)CC3)c2Cl)cc1` (stereo not shown) [I-825], the LogP is 4.84[a].

As to `Nc1nsc(C(=O)NCC2(F)CCCC2)c1Cl` [I-826], the LogP is 1.81[a].

For the molecule `Nc1nsc(C(=O)NCC2(F)CCC2)c1Cl` [I-827], the LogP was 1.50[a].

As for `Nc1nsc(C(=O)NCC2(F)CCCCC2)c1Br` [I-828], the LogP is 2.15[a].

Take `Nc1nsc(C(=O)NCC2(F)CCCC2)c1Br` [I-829]: the LogP was 1.83[a].

Turning to `Nc1nsc(C(=O)NCc2ccc(F)cc2)c1Br` [I-831], the LogP was 1.82[a].

For the molecule `Nc1nsc(C(=O)NCc2ccccc2F)c1Br` [I-832], the LogP is 1.79[a].

With `N#CC(NC(=O)c1snc(N)c1Br)C1CCCCC1` (stereo not shown) [I-833], the LogP was 2.21[a].

Take `CCC1(CNC(=O)c2snc(NC(C)C)c2Cl)CCCCC1` [I-834]: the LogP was 5.03[a].

For `CC1CCC(C)(CNC(=O)c2snc(N)c2Cl)CC1` (stereo not shown) [I-835], the LogP was 3.17[a].

Take `CCC1(CNC(=O)c2snc(N)c2Cl)CCCCC1` [I-836]: the LogP is 3.20[a].

In the case of `COC1(CNC(=O)c2snc(N)c2Cl)CCC(C)CC1` (stereo not shown) [I-837], the LogP was 2.58[a].

With `Nc1nsc(C(=O)NCC2CCC(C(F)(F)F)CC2)c1Br` (stereo not shown) [I-840], the LogP is 2.68[a].

Turning to `Nc1nsc(C(=O)NC2CCCCC2)c1Br` [I-841], the LogP is 2.11[a].

As for `CC1(C)CC(CNC(=O)c2snc(N)c2Br)C1` [I-842], the LogP is 2.60[a].

Take `CCOC(=O)C1CCC(NC(=O)c2snc(N)c2Cl)CC1` (stereo not shown) [I-843]: the LogP is 1.92[a].

With `CCOC(=O)C1CCC(NC(=O)c2snc(N)c2Cl)CC1` (stereo not shown) [I-844], the LogP was 2.02[a].

As to `CC(=O)N(C(C)=O)c1nsc(C(=O)NCc2ccc(C#N)cc2)c1Cl` [I-846], the LogP is 2.12[a].

Turning to `CC(=O)Nc1nsc(C(=O)NCc2ccc(C#N)cc2)c1Cl` [I-847], the LogP is 1.24[a].

Regarding `Nc1nsc(C(=O)NCCC2CCCCC2)c1Cl` [I-850], the LogP was 2.92[a].

Turning to `Nc1nsc(C(=O)NCCc2ccccc2)c1Cl` [I-851], the LogP was 1.98[a].

In the case of `Nc1nsc(C(=O)Nc2ccccc2)c1Cl` [I-852], the LogP is 1.83[a].

`Nc1cc(C(=O)NCCC2CCCCC2)sn1` [I-853]: the LogP was 2.23[a].

As to `Nc1cc(C(=O)NCCc2ccccc2)sn1` [I-854], the LogP is 1.52[a].

On to `Nc1cc(C(=O)Nc2ccccc2)sn1` [I-855], for which the LogP was 1.41[a].

With `COc1ccc(CNc2nsc(C(=O)Nc3ccc(F)cc3F)c2Cl)cc1` [I-856], the LogP is 3.83[a].

In the case of `Nc1nsc(C(=O)Nc2ccc(F)cc2)c1Cl` [I-857], the LogP was 2.04[a].

For `COc1ccc(CNc2nsc(C(=O)Nc3ccc(F)cc3)c2Cl)cc1` [I-858], the LogP is 3.76[a].

Turning to `COc1ccc(CNc2nsc(C(=O)N(CC3C(C)CCCC3(C)C)C3CC3)c2Cl)cc1` (stereo not shown) [I-859], the LogP was 6.09[a].

Turning to `COc1ccc(CNc2nsc(C(=O)N(C3CC3)C3CCCCC3(C)C)c2Cl)cc1` (stereo not shown) [I-860], the LogP was 5.31[a].

Regarding `COc1ccc(CNc2nsc(C(=O)Nc3cccc(F)c3)c2Cl)cc1` [I-861], the LogP is 3.85[a].

Take `COc1ccc(CNc2nsc(C(=O)Nc3cc(F)cc(F)c3)c2Cl)cc1` [I-862]: the LogP was 4.15[a].

Take `CC1(C)CCCCC1N(C(=O)c1snc(N)c1Cl)C1CC1` (stereo not shown) [I-863]: the LogP was 3.30[a].

As to `Nc1nsc(C(=O)Nc2ccc(F)cc2F)c1Cl` [I-864], the LogP was 2.07[a].

As for `Nc1nsc(C(=O)Nc2cccc(F)c2)c1Cl` [I-865], the LogP was 2.07[a].

In the case of `Nc1nsc(C(=O)Nc2cc(F)cc(F)c2)c1Cl` [I-866], the LogP was 2.54[a].

With `COc1ccc(CNc2nsc(C(=O)Nc3ccc(Cl)cc3Cl)c2Cl)cc1` [I-867], the LogP is 5.22[a].

In the case of `COc1ccc(CNc2nsc(C(=O)Nc3ccc(Cl)cc3)c2Cl)cc1` [I-868], the LogP was 4.21[a].

Consider `COc1ccc(CNc2nsc(C(=O)Nc3cccc4c3C(C)OC4(C)C)c2Cl)cc1` (stereo not shown) [I-869], for which the LogP was 3.96[a].

Regarding `COc1ccc(CNc2nsc(C(=O)N(Cc3c(C)cc(C)cc3C)C3CC3)c2Cl)cc1` [I-870], the LogP is 4.94[a].

As to `COc1ccc(CNc2nsc(C(=O)N(Cc3ccccc3C(C)C)C3CC3)c2Cl)cc1` [I-871], the LogP was 4.71[a].

Take `COc1ccc(CNc2nsc(C(=O)N(Cc3cc(C)cc(C)c3)C3CC3)c2Cl)cc1` [I-872]: the LogP was 4.90[a].

With `COc1ccc(CNc2nsc(C(=O)N(C3CC3)C(C)c3ccccc3)c2Cl)cc1` (stereo not shown) [I-873], the LogP was 4.17[a].

Take `CCc1ccccc1C(C)N(C(=O)c1snc(NCc2ccc(OC)cc2)c1Cl)C1CC1` (stereo not shown) [I-874]: the LogP is 5.14[a].

Turning to `CCC(c1ccccc1)N(C(=O)c1snc(NCc2ccc(OC)cc2)c1Cl)C1CC1` (stereo not shown) [I-875], the LogP was 4.85[a].

With `COc1ccc(CNc2nsc(C(=O)N(Cc3cc(C)ccc3C)C3CC3)c2Cl)cc1` [I-876], the LogP is 4.77[a].

Take `COc1ccc(CNc2nsc(C(=O)NCCc3ccccc3Cl)c2Cl)cc1` [I-877]: the LogP is 4.07[a].

Take `Nc1nsc(C(=O)Nc2ccc(Cl)cc2)c1Cl` [I-878]: the LogP is 2.51[a].

Take `CC1OC(C)(C)c2cccc(NC(=O)c3snc(N)c3Cl)c21` (stereo not shown) [I-879]: the LogP was 2.28[a].

Turning to `COc1ccc(CNc2nsc(C(=O)Nc3cccc4c3C(C)CC4(C)C)c2Cl)cc1` (stereo not shown) [I-880], the LogP was 5.42[a].

Take `COc1ccc(CNc2nsc(C(=O)Nc3ccccc3C#N)c2Cl)cc1` [I-881]: the LogP is 3.62[a].

Regarding `COc1ccc(CNc2nsc(C(=O)Nc3ccc(C)c(Cl)c3)c2Cl)cc1` [I-882], the LogP is 4.63[a].

For `COc1ccc(CNc2nsc(C(=O)NS(C)(=O)=O)c2Cl)cc1` [I-883], the LogP is 1.86[a].

In the case of `CNC(=O)c1snc(N)c1Cl` [I-884], the LogP was 0.32[a].

On to `CC1CC(C)(C)c2cccc(NC(=O)c3snc(N)c3Cl)c21` (stereo not shown) [I-885], for which the LogP is 3.62[a].

Take `CC(c1ccccc1)N(C(=O)c1snc(N)c1Cl)C1CC1` (stereo not shown) [I-886]: the LogP was 2.73[a].

`CCc1ccccc1C(C)N(C(=O)c1snc(N)c1Cl)C1CC1` (stereo not shown) [I-887]: the LogP was 3.37[a].

For the molecule `CCC(c1ccccc1)N(C(=O)c1snc(N)c1Cl)C1CC1` (stereo not shown) [I-888], the LogP is 3.11[a].

For the molecule `COc1ccc(CNc2nsc(C(=O)N(Cc3cc(C)c(C)cc3C)C3CC3)c2Cl)cc1` [I-889], the LogP was 5.11[a].

`CCc1ccccc1CN(C(=O)c1snc(NCc2ccc(OC)cc2)c1Cl)C1CC1` [I-890]: the LogP is 4.74[a].
